Several values for one entry are separate records, joined by “and”; a condition that tells them apart may be missing. Identical values can stand only once. Values belong to the molecule of their own block, whether it stands above or below them.
System: 324938-238-R-J1-PDC complex spheroids viability
Assay: Anticancer human tumor 324938-238-R-J1-PDC patient-derived bladder carcinoma cell line growth inhibition [CLK]
Conditions: for viability, T/C: stronger effect = lower value
Procedure, shortened: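 Multi-cell-type spheroids combined patient-derived tumor cells with HUVEC endothelial cells and human mesenchymal stem cells. Paired agents were dosed in half-log steps down from about clinical Cmax, or from 10 microM where Cmax was unknown.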

[1] = curve of first compound, second compound 0.0316 µM
[2] = curve of first compound, second compound 0.1 µM
[3] = curve of first compound, second compound 0.316 µM
[4] = curve of first compound, second compound 1 µM
[5] = curve of first compound, second compound 3.16 µM
[6] = curve of first compound, second compound 10 µM
[7] = second compound 0.0316 µM, first compound 0.00949 µM
[8] = second compound 0.0316 µM, first compound 0.03 µM
[9] = second compound 0.0316 µM, first compound 0.0949 µM
[10] = second compound 0.0316 µM, first compound 0.3 µM
[11] = second compound 0.1 µM, first compound 0.00949 µM
[12] = second compound 0.1 µM, first compound 0.03 µM
[13] = second compound 0.1 µM, first compound 0.0949 µM
[14] = second compound 0.1 µM, first compound 0.3 µM
[15] = second compound 0.316 µM, first compound 0.00949 µM
[16] = second compound 0.316 µM, first compound 0.03 µM
[17] = second compound 0.316 µM, first compound 0.0949 µM
[18] = second compound 0.316 µM, first compound 0.3 µM
[19] = second compound 1 µM, first compound 0.00949 µM
[20] = second compound 1 µM, first compound 0.03 µM
[21] = second compound 1 µM, first compound 0.0949 µM
[22] = second compound 1 µM, first compound 0.3 µM
[23] = second compound 3.16 µM, first compound 0.00949 µM
[24] = second compound 3.16 µM, first compound 0.03 µM
[25] = second compound 3.16 µM, first compound 0.0949 µM
[26] = second compound 3.16 µM, first compound 0.3 µM
[27] = second compound 10 µM, first compound 0.00949 µM
[28] = second compound 10 µM, first compound 0.03 µM
[29] = second compound 10 µM, first compound 0.0949 µM
[30] = second compound 10 µM, first compound 0.3 µM
[31] = second compound 0.0316 µM, first compound 0.0316 µM
[32] = second compound 0.0316 µM, first compound 0.1 µM
[33] = second compound 0.0316 µM, first compound 0.316 µM
[34] = second compound 0.0316 µM, first compound 1 µM
[35] = second compound 0.0316 µM, first compound 3.16 µM
[36] = second compound 0.0316 µM, first compound 10 µM
[37] = second compound 0.1 µM, first compound 0.0316 µM
[38] = second compound 0.1 µM, first compound 0.1 µM
[39] = second compound 0.1 µM, first compound 0.316 µM
[40] = second compound 0.1 µM, first compound 1 µM
[41] = second compound 0.1 µM, first compound 3.16 µM
[42] = second compound 0.1 µM, first compound 10 µM
[43] = second compound 0.316 µM, first compound 0.0316 µM
[44] = second compound 0.316 µM, first compound 0.1 µM
[45] = second compound 0.316 µM, first compound 0.316 µM
[46] = second compound 0.316 µM, first compound 1 µM
[47] = second compound 0.316 µM, first compound 3.16 µM
[48] = second compound 0.316 µM, first compound 10 µM
[49] = second compound 1 µM, first compound 0.0316 µM
[50] = second compound 1 µM, first compound 0.1 µM
[51] = second compound 1 µM, first compound 0.316 µM
[52] = second compound 1 µM, first compound 1 µM
[53] = second compound 1 µM, first compound 3.16 µM
[54] = second compound 1 µM, first compound 10 µM
[55] = second compound 3.16 µM, first compound 0.0316 µM
[56] = second compound 3.16 µM, first compound 0.1 µM
[57] = second compound 3.16 µM, first compound 0.316 µM
[58] = second compound 3.16 µM, first compound 1 µM
[59] = second compound 3.16 µM, first compound 3.16 µM
[60] = second compound 3.16 µM, first compound 10 µM
[61] = second compound 10 µM, first compound 0.0316 µM
[62] = second compound 10 µM, first compound 0.1 µM
[63] = second compound 10 µM, first compound 0.316 µM
[64] = second compound 10 µM, first compound 1 µM
[65] = second compound 10 µM, first compound 3.16 µM
[66] = second compound 10 µM, first compound 10 µM
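Note: viability read after seven days of drug exposure.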
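Throughout, for viability, T/C: 100% = DMSO vehicle control wells.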

Compound: NC(=O)C(=Cn1cnc(-c2cc(C(F)(F)F)cc(C(F)(F)F)c2)n1)c1cncnc1 + CNC(=O)c1ccc(Nc2nc(OC3CCCC3)c3c(-c4ccc5nc(C)oc5c4)c[nH]c3n2)c(OC)c1
IC50 [1]: 60.8 nM | IC50 [2]: < 9.49 nM | IC50 [3]: < 9.49 nM | IC50 [4]: < 9.49 nM | IC50 [5]: < 9.49 nM | IC50 [6]: < 9.49 nM | viability, T/C [7]: 67.1% | viability, T/C [8]: 74.3% | viability, T/C [9]: 36.9% | viability, T/C [10]: 14.3% | viability, T/C (second compound 0.0316 µM, first compound 0.949 µM): 8.38% | viability, T/C (second compound 0.0316 µM, first compound 3 µM): 3.32% | viability, T/C [11]: 21.3% | viability, T/C [12]: 24.6% | viability, T/C [13]: 16.9% | viability, T/C [14]: 12.7% | viability, T/C (second compound 0.1 µM, first compound 0.949 µM): 8.37% | viability, T/C (second compound 0.1 µM, first compound 3 µM): 3.77% | viability, T/C [15]: 15.7% | viability, T/C [16]: 15.5% | viability, T/C [17]: 13.7% | viability, T/C [18]: 7.83% | viability, T/C (second compound 0.316 µM, first compound 0.949 µM): 3.16% | viability, T/C (second compound 0.316 µM, first compound 3 µM): 2.69% | viability, T/C [19]: 12.9% | viability, T/C [20]: 12.8% | viability, T/C [21]: 9.03% | viability, T/C [22]: 5.74% | viability, T/C (second compound 1 µM, first compound 0.949 µM): 3.19% | viability, T/C (second compound 1 µM, first compound 3 µM): 1% | viability, T/C [23]: 16.2% | viability, T/C [24]: 14.1% | viability, T/C [25]: 8.67% | viability, T/C [26]: 4.86% | viability, T/C (second compound 3.16 µM, first compound 0.949 µM): 2.59% | viability, T/C (second compound 3.16 µM, first compound 3 µM): 1.1% | viability, T/C [27]: 14.4% | viability, T/C [28]: 13% | viability, T/C [29]: 9.72% | viability, T/C [30]: 5.02% | viability, T/C (second compound 10 µM, first compound 0.949 µM): 2.24% | viability, T/C (second compound 10 µM, first compound 3 µM): 0.98%

Compound: CC(CO)NC(=O)c1cc(-c2ccc(Cl)cc2)nn(-c2cnn(C)c2)c1=O (stereo not given) + CN1CCN(c2cc(C(=O)Nc3cc4cc(-c5cnn(C)c5)ccc4cn3)ccn2)CC1
IC50 [1]: > 10000 nM | IC50 [2]: 4990 nM | IC50 [3]: < 31.6 nM | IC50 [4]: < 31.6 nM | IC50 [5]: < 31.6 nM | IC50 [6]: < 31.6 nM | viability, T/C [31]: 84.4% | viability, T/C [32]: 92.8% | viability, T/C [33]: 83.5% | viability, T/C [34]: 81% | viability, T/C [35]: 63.6% | viability, T/C [36]: 50.9% | viability, T/C [37]: 60.7% | viability, T/C [38]: 62.8% | viability, T/C [39]: 63.3% | viability, T/C [40]: 55.7% | viability, T/C [41]: 57.3% | viability, T/C [42]: 41.3% | viability, T/C [43]: 23.5% | viability, T/C [44]: 25.9% | viability, T/C [45]: 25.3% | viability, T/C [46]: 25.8% | viability, T/C [47]: 26.5% | viability, T/C [48]: 21.4% | viability, T/C [49]: 1.59% | viability, T/C [50]: 1.8% | viability, T/C [51]: 1.38% | viability, T/C [52]: 1.23% | viability, T/C [53]: 1.2% | viability, T/C [54]: 1.04% | viability, T/C [55]: 0.16% | viability, T/C [56]: 0.21% | viability, T/C [57]: 0.21% | viability, T/C [58]: 0.15% | viability, T/C [59]: 0.25% | viability, T/C [60]: 0.67% | viability, T/C [61]: 0.13% | viability, T/C [62]: 0.19% | viability, T/C [63]: 0.25% | viability, T/C [64]: 0.2% | viability, T/C [65]: 0.18% | viability, T/C [66]: 0.22%

Compound: C=CC(=O)Nc1cc(Nc2nccc(-c3cn(C)c4ccccc34)n2)c(OC)cc1N(C)CCN(C)C + CN1CCN(c2cc(C(=O)Nc3cc4cc(-c5cnn(C)c5)ccc4cn3)ccn2)CC1
IC50 [1]: 69.5 nM | IC50 [2]: 6.25 nM | IC50 [3]: < 0.949 nM | IC50 [4]: < 0.949 nM | IC50 [5]: < 0.949 nM | IC50 [6]: < 0.949 nM | viability, T/C (second compound 0.0316 µM, first compound 0.000949 µM): 80% | viability, T/C (second compound 0.0316 µM, first compound 0.003 µM): 77.5% | viability, T/C [7]: 69.7% | viability, T/C [8]: 66.3% | viability, T/C [9]: 43.7% | viability, T/C [10]: 25.3% | viability, T/C (second compound 0.1 µM, first compound 0.000949 µM): 60.3% | viability, T/C (second compound 0.1 µM, first compound 0.003 µM): 48.5% | viability, T/C [11]: 51% | viability, T/C [12]: 39% | viability, T/C [13]: 33% | viability, T/C [14]: 19.1% | viability, T/C (second compound 0.316 µM, first compound 0.000949 µM): 19.7% | viability, T/C (second compound 0.316 µM, first compound 0.003 µM): 22.8% | viability, T/C [15]: 20.9% | viability, T/C [16]: 21.8% | viability, T/C [17]: 17.1% | viability, T/C [18]: 15.7% | viability, T/C (second compound 1 µM, first compound 0.000949 µM): 1.22% | viability, T/C (second compound 1 µM, first compound 0.003 µM): 1.22% | viability, T/C [19]: 1.43% | viability, T/C [20]: 1.11% | viability, T/C [21]: 1.21% | viability, T/C [22]: 0.28% | viability, T/C (second compound 3.16 µM, first compound 0.000949 µM): 0.13% | viability, T/C (second compound 3.16 µM, first compound 0.003 µM): 0.13% | viability, T/C [23]: 0.19% | viability, T/C [24]: 0.14% | viability, T/C [25]: 0.11% | viability, T/C [26]: 0.16% | viability, T/C (second compound 10 µM, first compound 0.000949 µM): 0.15% | viability, T/C (second compound 10 µM, first compound 0.003 µM): 0.16% | viability, T/C [27]: 0.21% | viability, T/C [28]: 0.16% | viability, T/C [29]: 0.18% | viability, T/C [30]: 0.21%

The next lines start with results.

IC50 [1]: 210 nM | IC50 [2]: < 31.6 nM | IC50 [3]: < 31.6 nM | IC50 [4]: < 31.6 nM | IC50 [5]: < 31.6 nM | IC50 [6]: < 31.6 nM
Compound: COC1C=CCC(C)C(C)S(=O)(=O)NC(=O)c2ccc3c(c2)N(CC2CCC21)CC1(CCCc2cc(Cl)ccc21)CO3 (stereo not given) + CNC(=O)c1ccc(Nc2nc(OC3CCCC3)c3c(-c4ccc5nc(C)oc5c4)c[nH]c3n2)c(OC)c1
viability, T/C [31]: 89.6% | viability, T/C [32]: 79.6% | viability, T/C [33]: 32.8% | viability, T/C [34]: 21.8% | viability, T/C [35]: 15.3% | viability, T/C [36]: 7.03% | viability, T/C [37]: 31.7% | viability, T/C [38]: 27.9% | viability, T/C [39]: 24.4% | viability, T/C [40]: 15.4% | viability, T/C [41]: 22.5% | viability, T/C [42]: 8.36% | viability, T/C [43]: 18% | viability, T/C [44]: 15.1% | viability, T/C [45]: 12.9% | viability, T/C [46]: 12.1% | viability, T/C [47]: 10.7% | viability, T/C [48]: 7.76% | viability, T/C [49]: 15.1% | viability, T/C [50]: 13.3% | viability, T/C [51]: 11.8% | viability, T/C [52]: 11.2% | viability, T/C [53]: 11.3% | viability, T/C [54]: 7.89% | viability, T/C [55]: 16.1% | viability, T/C [56]: 13.2% | viability, T/C [57]: 13.1% | viability, T/C [58]: 10.6% | viability, T/C [59]: 11.4% | viability, T/C [60]: 8.28% | viability, T/C [61]: 14.7% | viability, T/C [62]: 15% | viability, T/C [63]: 15% | viability, T/C [64]: 10.7% | viability, T/C [65]: 11.6% | viability, T/C [66]: 9.83%

IC50 (curve of compound): 3300 nM and 3510 nM
Compound: COc1ccc([C@@H](O)c2cc(-c3ncnc4cc(N5CCOCC5)ccc34)c(F)cc2Cl)nn1
viability, T/C (compound 0.0316 µM): 78% and 79.6% | viability, T/C (compound 0.1 µM): 81% and 88.1% | viability, T/C (compound 0.316 µM): 68.9% and 55.6% | viability, T/C (compound 1 µM): 59.9% and 71% | viability, T/C (compound 3.16 µM): 52.4% and 50.7% | viability, T/C (compound 10 µM): 37.4% and 36.7%
